Laboratory results from PubChem BioAssay (NCI).
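1) Cells in 96-well plates. 2) Compound, 48 h, 5 concentrations. 3) Linear interpolation between surrounding doses. 4) Unreached endpoint = highest concentration. Here, GI50 denotes the concentration required for 50% inhibition of growth. TGI: total growth inhibition.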

Experiments:
Assay in all cases: DTP human tumour cell line panel, 48 h
[1] = system: DU-145 prostate
[2] = system: HCT-116 colon
[3] = system: HL-60(TB) leukemia
[4] = system: HS 578T breast
[5] = system: M14 melanoma
[6] = system: OVCAR-5 ovarian
[7] = system: RPMI-8226 leukemia
[8] = system: SNB-19 CNS
[9] = system: U251 CNS
[10] = system: UACC-62 melanoma
[11] = system: SNB-75 CNS

Structure (SMILES): Cc1ccc(S(=O)(=O)NN=C2CCCCCCCCCCC2)cc1
- TGI [1]: > 100 µM
- TGI [2]: > 100 µM
- TGI [3]: > 100 µM
- TGI [4]: > 100 µM
- TGI [5]: > 100 µM
- TGI [6]: > 100 µM
- TGI [7]: > 100 µM
- TGI [8]: > 100 µM
- TGI [9]: > 100 µM
- TGI [10]: > 100 µM

Structure (SMILES): CC(OC(=O)NCn1cc(-c2ccccc2)nn1)c1ccccc1 (stereo not drawn)
- TGI [1]: > 100 µM
- TGI [2]: > 100 µM
- TGI [3]: 75 µM
- TGI [5]: 34.9 µM
- TGI [6]: > 100 µM
- TGI [7]: > 100 µM
- TGI [8]: > 100 µM
- TGI [9]: > 100 µM

Structure (SMILES): CN1CN(c2ccccc2)C2(CCN(CCCSc3ccccc3NC(=O)/C=C/c3ccccc3)CC2)C1=O
- TGI [1]: 18.2 µM
- TGI [2]: 8.76 µM
- TGI [3]: 23.8 µM
- TGI [4]: 15 µM
- TGI [5]: 3.89 µM
- TGI [6]: > 60.5 µM
- TGI [8]: 25.1 µM
- TGI [11]: 22.8 µM
- TGI [9]: 22.5 µM
- TGI [10]: 6.37 µM

Structure (SMILES): CC(C)(C)NN=C1C(C)(C)C(=NNC(C)(C)C)C1(C)C
- TGI [2]: > 100 µM
- TGI [3]: > 100 µM
- TGI [5]: > 100 µM
- TGI [6]: > 100 µM
- TGI [7]: > 100 µM
- TGI [8]: > 100 µM
- TGI [11]: > 100 µM
- TGI [9]: > 100 µM
- TGI [10]: > 100 µM

Structure (SMILES): CC1(C2(C)OC(=O)c3ccccc32)OC(=O)c2ccccc21 (stereo not drawn)
- TGI [1]: > 100 µM
- TGI [2]: > 100 µM
- TGI [3]: > 100 µM
- TGI [4]: > 100 µM
- TGI [5]: > 100 µM
- TGI [7]: > 100 µM
- TGI [8]: > 100 µM
- TGI [11]: > 100 µM
- TGI [9]: > 100 µM
- TGI [10]: > 100 µM

Structure (SMILES): O=c1[nH]c(Nc2cccc(C(F)(F)F)c2)nc2nc[nH]c12
- TGI [1]: > 100 µM
- TGI [2]: > 100 µM
- TGI [3]: > 100 µM
- TGI [4]: > 100 µM
- TGI [5]: > 100 µM
- TGI [6]: > 100 µM
- TGI [7]: > 100 µM
- TGI [8]: > 100 µM
- TGI [11]: > 100 µM
- TGI [9]: > 100 µM

Structure (SMILES): CCCCCNc1nonc1N
- TGI [1]: > 100 µM
- TGI [2]: > 100 µM
- TGI [4]: > 100 µM
- TGI [5]: > 100 µM
- TGI [6]: > 100 µM
- TGI [7]: > 100 µM
- TGI [8]: > 100 µM
- TGI [11]: > 100 µM
- TGI [9]: > 100 µM
- TGI [10]: > 100 µM

Structure (SMILES): Cc1cccc2c1Oc1ccccc1C2NC(=O)c1ccc([N+](=O)[O-])cc1 (stereo not drawn)
- TGI [1]: > 100 µM
- TGI [2]: > 100 µM
- TGI [3]: > 100 µM
- TGI [4]: 82.6 µM
- TGI [5]: > 100 µM
- TGI [6]: > 100 µM
- TGI [7]: > 100 µM
- TGI [8]: > 100 µM
- TGI [9]: > 100 µM
- TGI [10]: > 100 µM

Structure (SMILES): Cn1c(=O)cc(NCc2ccc(Cl)cc2)[nH]c1=O
- TGI [2]: > 100 µM
- TGI [4]: 61.3 µM
- TGI [5]: > 100 µM
- TGI [6]: > 100 µM
- TGI [7]: > 100 µM
- TGI [8]: > 100 µM
- TGI [11]: 84.5 µM
- TGI [9]: > 100 µM
- TGI [10]: > 100 µM

Structure (SMILES): COC1=CC(=O)[C@H]2[C@H](C)C(c3ccccc3)[C@@]2(C)C1=O (stereo partly drawn)
- TGI [3]: > 100 µM
- TGI [5]: > 100 µM
- TGI [6]: > 100 µM
- TGI [7]: > 100 µM
- TGI [8]: > 100 µM
- TGI [11]: > 100 µM
- TGI [9]: > 100 µM
- TGI [10]: > 100 µM

Structure (SMILES): COc1ccc2nc3ccc(OC)cc3c(S(=O)(=O)Cc3ccc([N+](=O)[O-])cc3)c2c1
- TGI [1]: > 100 µM
- TGI [2]: > 100 µM
- TGI [3]: > 100 µM
- TGI [5]: > 100 µM
- TGI [6]: > 100 µM
- TGI [8]: > 100 µM
- TGI [11]: > 100 µM
- TGI [9]: > 100 µM
- TGI [10]: > 100 µM

Structure (SMILES): COc1cccc(NC(=S)Nn2c(C)nc3ccccc3c2=O)c1
- TGI [2]: > 100 µM
- TGI [3]: > 100 µM
- TGI [5]: > 100 µM
- TGI [6]: > 100 µM
- TGI [7]: > 100 µM
- TGI [11]: > 100 µM
- TGI [9]: > 100 µM
- TGI [10]: > 100 µM

Structure (SMILES): COC(=O)C(O)P(=O)(OC)OC (stereo not drawn)
- TGI [1]: > 100 µM
- TGI [2]: > 100 µM
- TGI [3]: > 100 µM
- TGI [4]: > 100 µM
- TGI [5]: > 100 µM
- TGI [6]: > 100 µM
- TGI [7]: > 100 µM
- TGI [8]: > 100 µM
- TGI [9]: > 100 µM
- TGI [10]: > 100 µM

Structure (SMILES): OC12COc3ccccc3C1Oc1ccccc1C2 (stereo not drawn)
- TGI [1]: > 100 µM
- TGI [2]: > 100 µM
- TGI [5]: > 100 µM
- TGI [6]: > 100 µM
- TGI [7]: > 100 µM
- TGI [11]: > 100 µM
- TGI [9]: > 100 µM
- TGI [10]: > 100 µM

Structure (SMILES): CCCn1c(SCC)c2ccccc2c1-c1nc(F)nc(F)n1
- TGI [2]: > 100 µM
- TGI [3]: > 100 µM
- TGI [5]: > 100 µM
- TGI [6]: > 100 µM
- TGI [7]: > 100 µM
- TGI [8]: > 100 µM
- TGI [9]: > 100 µM

Structure (SMILES): CCCc1c(OC)c(=O)c2c(OC)cc(OC)c3c4c(OC)cc(OC)c5c(=O)c(OC)c(CCC)c(c1c23)c54
- TGI [1]: 24.6 µM
- TGI [2]: 28 µM
- TGI [3]: 10.4 µM
- TGI [5]: 30.6 µM
- TGI [6]: 29 µM
- TGI [8]: 34.6 µM
- TGI [11]: 36 µM
- TGI [9]: 29.6 µM
- TGI [10]: 24.1 µM

Structure (SMILES): Nc1c(-c2nc3ccccc3s2)c2ccc([N+](=O)[O-])cc2c(=O)n1-c1cccc(C(=O)O)c1
- TGI [1]: 64.7 µM
- TGI [2]: 45.1 µM
- TGI [3]: 37.7 µM
- TGI [4]: > 100 µM
- TGI [8]: 52 µM
- TGI [11]: 85.4 µM
- TGI [9]: 56 µM
- TGI [10]: 58.6 µM

Structure (SMILES): CC1(C)CC[C@]2(C)CC=C3[C@]4(C)CC[C@H]5C(C)(C)C(=O)CC[C@]5(C)[C@H]4CC[C@@]3(C)[C@H]2C1
- TGI [1]: > 100 µM
- TGI [2]: > 100 µM
- TGI [4]: > 100 µM
- TGI [5]: > 100 µM
- TGI [6]: > 100 µM
- TGI [7]: > 100 µM
- TGI [8]: > 100 µM
- TGI [9]: > 100 µM
- TGI [10]: > 100 µM

Structure (SMILES): COCC1CCCN1c1ccc(/C=C(/C#N)C(N)=S)cc1 (stereo not drawn)
- GI50 [1]: > 100 µM
- TGI [1]: > 100 µM
- GI50 [2]: > 100 µM
- TGI [2]: > 100 µM
- GI50 [3]: > 100 µM
- TGI [3]: > 100 µM
- GI50 [4]: > 100 µM
- TGI [4]: > 100 µM
- GI50 [5]: > 100 µM
- TGI [5]: > 100 µM
- GI50 [6]: > 100 µM
- TGI [6]: > 100 µM
- GI50 [8]: > 100 µM
- TGI [8]: > 100 µM
- GI50 [11]: 90.7 µM
- TGI [11]: > 100 µM
- GI50 [9]: > 100 µM
- TGI [9]: > 100 µM

Structure (SMILES): CCCc1cc(=O)oc2c3c(c4c(c12)OC(C)(C)C=C4)O[C@@H](C)[C@H](C)C3=O
- TGI [1]: 61.1 µM
- TGI [2]: 24.2 µM
- TGI [3]: 33.4 µM
- TGI [4]: 38.7 µM
- TGI [6]: 33.2 µM
- TGI [7]: 31.2 µM
- TGI [8]: 37.5 µM
- TGI [11]: 30.7 µM
- TGI [9]: 97.6 µM

Structure (SMILES): O=[N+]([O-])c1cccc2nc3ccccc3c(NCCc3cccc[n+]3[O-])c12
- TGI [1]: < 0.0277 µM
- TGI [3]: 0.277 µM
- TGI [4]: 0.299 µM
- TGI [5]: < 0.0172 µM
- TGI [6]: 0.145 µM
- TGI [7]: 0.0679 µM
- TGI [8]: 1.62 µM
- TGI [9]: 0.145 µM
- TGI [10]: 0.211 µM
